Source: patent publication US9341616B2, “Sweet taste receptor chimeric proteins and use thereof” (AJINOMOTO CO., INC., priority 2014, dated 2016)
Residues, ends and D or L forms follow the SMILES beside them.

What follows are compounds tested against h-mT1R2-481/T1R3mosaicB (UniProt Q8TE23+Q925D8, A537S/A558R/A564V/A568V/A570T/A588V/A645S/A649T/A658V/A698V/A702T/A782V/A793V/A807V/A88D/C582S/C678S/E530V/E534N/E542M/E548N/E725V/F525Y/F541I/F612A/F622V/F665L/F695L/F71L/G696N/G701T/G86K/H484Y/H528R/H728R/I152V/I481V/I486P/I490V/I510L/I518V/I595M/I617V/I643V/I645L/I692L/I695G/I706V/I740A/I803L/K504M/K555R/K565R/K626T/K714N/K818R/K827G/L151M/L521P/L560F/L571I/L578I/L610P/L631F/L636F/L639V/L684P/L688V/L68N/L702I/L72W/L734M/L735F/L800F/L823M/L825Q/M492I/M616G/M644L/M682V/M690V/M744T/M748V/M74L/N540G/N541S/N547G/N675D/N721H/P545F/P561R/P564S/P638T/P67S/P824S/Q123R/Q536L/Q546K/Q550E/Q555R/Q611L/Q676H/Q757R/Q795R/Q831P/R498S/R632Q/R667S/S112P/S124D/S501P/S547N/S550A/S576L/S595F/S610P/S628F/S635P/S637R/S663R/S670G/S679G/S681F/S703N/S717H/S727G/S784D/S804G/T109A/T529S/T542A/T549I/T609V/T629S/T642S/T663I/T694M/T705I/T706G/T716I/T813A/V120A/V508I/V512P/V557A/V573A/V584A/V585L/V613L/V617M/V673M/V687A/V691A/V694A/V718L/V718M/V723A/V729T/V738A/V741L/V774I/V791M/V805L/V812A/V821L/W599R/W676R/W824R/Y533F/Y615F/Y671F/Y680C/Y769S/Y783H/Y794L). Conditions: Table 6; genes h-mT481/T1R3mB (h-mT1R2-481, T1R3mB); HEK293E cells.
Procedure: The HEK293E cells maintained by using the DMEM/Ham's F-12 medium (Nakarai Tesque) containing 10% fetal bovine serum ([…]) and 1% Pen Strep (GIBCO) were washed with D-PBS(−) (Nakarai Tesque), and collected from the flask by using 0.25% Trypsin EDTA (GIBCO). The cells were centrifuged (1,200 rpm, 3 minutes), and after the supernatant was removed, suspended in 5% FBS DMEM/Ham's F-12 at a density of 0.75×10^7 cell/ml. This suspension (10 ml) was put into a […] (IWAKI), and culture was performed overnight (37° C., 5% CO2). On the next day, the medium was exchanged with Opti-MEM (30 ml, Invitrogen, Life Technologies), a sweet taste receptor gene mixture (Gα15-trans48LD gene, various kinds of T1R2 chimeric genes, and various kinds of T1R3 chimeric genes, 63.8 μg in total) prepared by using Opti-MEM and Lipofectamin 2000 (Invitrogen, Life Technologies) was slowly added to the cell suspension, and incubation was performed (37° C., 5% CO2) for 6 hours to attain gene transfer.
After the gene transfer, the cells were washed with D-PBS(−), then removed from the flask by using 0.25% Trypsin EDTA (GIBCO), and collected. After the cell number was counted, the cells were suspended in the 5% FBS DMEM medium (2.78 mM glucose, GIBCO) at a density of 0.5×10^6 cell/ml. This cell suspension was put into wells of D-Lysine coat 96-well plate (BD bioscience) in such a volume that the cell count is 7.0×10^4 cells/well, and the cells were cultured overnight.
After the culture, all the medium of the 96 wells were discarded. 200 μl of the staining solution for measurement of intracellular calcium ion′ Calcium Assay Kit Express (Molecular Device), diluted 80 times with an assay buffer (20 mM HEPES, 146 mM NaCl, 1 mM MgSO4, 1.39 mM glucose, 1 mM CaC12, 2.5 mM Probenecid, 0.05% bovine serum albumin) was added to each well, and the plate was left standing at 37° C. for 30 minutes and at room temperature for 45 minutes to perform staining. After the staining, 50 μl of a solution of stimulant (sweet taste substance) prepared with the assay buffer was added to each well, and the fluorescence value was measured for 120 seconds after the stimulation by using FDSSμEELL (Hamamatsu Photonics). By measuring the fluorescence value (Ex. 480 nm, Em. 540 nm) before and after the stimulation, the change of the intracellular free calcium ion concentration caused by addition of the stimulant via a sweet taste receptor was quantitatively investigated. The measurement and analysis of the fluorescence value was performed by using the software attached to FDSSμEELL (FDSS7000EX), and ΔF/F value was calculated in accordance with the following equation, and used for the evaluation. ΔF/F=(Maximum fluorescence value after stimulation−Minimum fluorescence value after stimulation)/(Fluorescence value before stimulation)
Furthermore, by using the ΔF/F values obtained when each sweet taste substance was added, the S/N ratio was calculated. Specifically, the S/N value was calculated by using the minimum value of ΔF/F obtained when each substance was added at various concentrations as noise (N) value, and the similarly obtained maximum value of ΔF/F as the signal (S) value, and used as an index for sensitivity of the measurement of the activity of each receptor. That is, a higher S/N value means a higher sensitivity for detection of an interaction of a sweet taste receptor and a test substance, which makes it easier to detect stimulation with a sweet taste substance or sweet taste-regulating substance of a lower concentration.
The sweet taste substances used as the stimulating substance are acesulfame potassium (Tokyo Kasei Kogyo), sodium saccharin (WAKO), sucralose (SIGMA), sucrose (WAKO), and neotame (SIGMA), as well as aspartame, advantame, and SC-45647 ([3-[(S)-1-phenylethyl]-2-(4-cyanophenyl)guanidino]acetic acid, which were all synthesized in-house.

h-mT1R2-481/T1R3mosaicB, sequence (Q8TE23 with tags, fused parts or gaps with the stated changes limits assumed): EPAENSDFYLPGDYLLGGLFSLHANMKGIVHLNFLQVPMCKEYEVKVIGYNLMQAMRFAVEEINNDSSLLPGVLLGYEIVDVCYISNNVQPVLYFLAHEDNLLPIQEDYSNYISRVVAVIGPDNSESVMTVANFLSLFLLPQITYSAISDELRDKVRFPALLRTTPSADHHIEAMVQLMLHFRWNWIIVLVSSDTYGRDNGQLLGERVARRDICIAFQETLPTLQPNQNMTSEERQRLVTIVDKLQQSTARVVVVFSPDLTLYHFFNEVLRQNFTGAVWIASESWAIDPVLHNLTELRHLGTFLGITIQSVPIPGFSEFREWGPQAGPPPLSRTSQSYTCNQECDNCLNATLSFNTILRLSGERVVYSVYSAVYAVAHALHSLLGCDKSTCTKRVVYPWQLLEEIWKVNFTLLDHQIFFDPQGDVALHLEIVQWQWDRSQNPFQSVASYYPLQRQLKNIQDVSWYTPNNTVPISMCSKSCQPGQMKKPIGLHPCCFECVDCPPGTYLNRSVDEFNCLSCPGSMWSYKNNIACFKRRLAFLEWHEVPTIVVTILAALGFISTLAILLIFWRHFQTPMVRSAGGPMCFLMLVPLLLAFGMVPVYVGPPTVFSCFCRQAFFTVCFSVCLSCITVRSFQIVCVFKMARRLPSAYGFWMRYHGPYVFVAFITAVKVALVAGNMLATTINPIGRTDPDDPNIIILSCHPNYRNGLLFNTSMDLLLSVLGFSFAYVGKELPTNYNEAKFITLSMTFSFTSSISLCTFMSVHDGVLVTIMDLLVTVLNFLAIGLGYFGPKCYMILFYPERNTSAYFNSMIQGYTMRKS
h-mT1R2-481/T1R3mosaicB, sequence (Q925D8 with tags, fused parts or gaps with the stated changes limits assumed): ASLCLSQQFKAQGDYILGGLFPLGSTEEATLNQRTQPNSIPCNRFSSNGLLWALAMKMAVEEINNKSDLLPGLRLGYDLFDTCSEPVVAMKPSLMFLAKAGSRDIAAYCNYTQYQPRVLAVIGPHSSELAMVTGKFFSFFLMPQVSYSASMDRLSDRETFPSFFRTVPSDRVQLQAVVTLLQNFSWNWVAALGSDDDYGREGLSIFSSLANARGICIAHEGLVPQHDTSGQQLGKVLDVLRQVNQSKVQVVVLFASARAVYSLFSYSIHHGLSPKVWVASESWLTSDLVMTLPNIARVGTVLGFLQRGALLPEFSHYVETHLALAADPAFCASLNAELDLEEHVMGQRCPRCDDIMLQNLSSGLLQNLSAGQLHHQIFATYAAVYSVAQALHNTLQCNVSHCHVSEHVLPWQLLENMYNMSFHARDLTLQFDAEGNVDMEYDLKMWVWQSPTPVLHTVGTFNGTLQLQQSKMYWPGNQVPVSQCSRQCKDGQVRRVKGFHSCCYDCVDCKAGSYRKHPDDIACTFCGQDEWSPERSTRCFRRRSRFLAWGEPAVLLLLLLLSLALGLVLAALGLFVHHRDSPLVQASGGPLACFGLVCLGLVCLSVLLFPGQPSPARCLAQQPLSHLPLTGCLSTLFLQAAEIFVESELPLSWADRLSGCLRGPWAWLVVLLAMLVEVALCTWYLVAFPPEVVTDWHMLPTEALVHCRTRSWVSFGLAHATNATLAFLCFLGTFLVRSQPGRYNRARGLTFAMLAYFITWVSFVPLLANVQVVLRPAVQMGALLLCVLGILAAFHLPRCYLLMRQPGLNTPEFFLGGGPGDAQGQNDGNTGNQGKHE

SMILES	S/N
COC(=O)[C@H](Cc1ccccc1)NC(=O)[C@H](CC(=O)O)NCCC(C)(C)C [Neotame, neotame]	7.7
COC(=O)[C@H](Cc1ccccc1)NC(=O)[C@H](CC(=O)O)NCCCc1ccc(OC)c(O)c1 [Advantame, advantame]	10.2
OC[C@H]1O[C@@](CO)(O[C@H]2O[C@H](CO)[C@@H](O)[C@H](O)[C@H]2O)[C@@H](O)[C@@H]1O [Sucrose, sucrose]	4.0
COC(=O)[C@H](Cc1ccccc1)NC(=O)[C@@H](N)CC(=O)O [Aspartame, aspartame] (HELM PEPTIDE1{D.F.[CO[*:1]]}$$$$V2.0)	7.8
O=C1NS(=O)(=O)c2ccccc21.[Na] [Saccharin Na, sodium saccharin]	6.1
C[C@H](NC(=Nc1ccc(C#N)cc1)NCC(=O)O)c1ccccc1 [SC-45647, [3-[(S)-1-phenylethyl]-2-(4-cyanophenyl)guanidino]acetic acid]	7.7
OC[C@H]1O[C@H](O[C@]2(CCl)O[C@H](CCl)[C@@H](O)[C@@H]2O)[C@H](O)[C@@H](O)[C@H]1Cl [Sucralose, sucralose]	6.6
COc1ccc(CCC(=O)c2c(O)cc(O[C@@H]3O[C@H](CO)[C@@H](O)[C@H](O)[C@H]3O[C@@H]3O[C@@H](C)[C@H](O)[C@@H](O)[C@H]3O)cc2O)cc1O [NHDC, neohesperidin dihydrochalcone]	5.8
CC1=CC(=O)NS(=O)(=O)O1 [Acesulfame K, acesulfame potassium]	5.6
